Results on 4 compounds are retold here after ChEMBL document CHEMBL1147899, “Raman, FT-IR, NMR spectroscopic data and antimicrobial activity of bis[micro2-(benzimidazol-2-yl)-2-ethanethiolato-N,S,S-chloro-palladium(II)] dimer, [(micro2-CH2CH2NHNCC6H4)PdCl]2.C2H5OH complex” (2007).

The structures appear in SMILES notation.

Holding throughout (assay type): functional
The subject of assay [1] is Micrococcus luteus. In words: Antibacterial activity against Micrococcus luteus La 2971 at 30 ug by disk diffusion method. Particulars: read-out: IZ.
Assay [2] deals with Escherichia coli. In words: Antibacterial activity against Escherichia coli ATCC 11230 at 30 ug after 24 hrs by disk diffusion method. The note with it: ATCC 11230, 24 h, read-out: IZ. On the technique in general: A growth-free zone around the sample is the usual read-out of agar diffusion tests.
Assay [3] concerns Pseudomonas aeruginosa. In words: Antibacterial activity against Pseudomonas aeruginosa ATCC 27853 at 30 ug after 24 hrs by disk diffusion method. Particulars: ATCC 27853, 24 h, read-out: IZ.
Assay [4] has as its system Listeria monocytogenes. In words: Antibacterial activity against Listeria monocytogenes ATCC 15313 at 30 ug after 24 hrs by disk diffusion method. Particulars: ATCC 15313, 24 h, read-out: IZ.
Assay [5] has as its system Mycolicibacterium smegmatis. In words: Antibacterial activity against Mycobacterium smegmatis CCM 2067 at 30 ug after 24 hrs by disk diffusion method. The note with it: CCM 2067, 24 h, read-out: IZ.
Assay [6] concerns Proteus vulgaris. Description: Antibacterial activity against Proteus vulgaris ATCC 8427 at 30 ug after 24 hrs by disk diffusion method. The note with it: ATCC 8427, 24 h, read-out: IZ.
Assay [7] concerns Bacillus cereus. In words: Antibacterial activity against Bacillus cereus ATCC 7064 at 30 ug after 24 hrs by disk diffusion method. The note with it: ATCC 7064, 24 h, read-out: IZ.
The test system of assay [8] is Staphylococcus aureus. Description: Antibacterial activity against Staphylococcus aureus ATCC 6538 at 30 ug after 24 hrs by disk diffusion method. The note with it: ATCC 6538, 24 h, read-out: IZ.
Assay [9] relates to Klebsiella pneumoniae. Description: Antibacterial activity against Klebsiella pneumoniae UC57 at 30 ug after 24 hrs by disk diffusion method. Particulars: read-out: IZ.
Assay [10] concerns Klebsiella pneumoniae. In words: Antibacterial activity against Klebsiella pneumoniae UC57 at 10 ug after 24 hrs by disk diffusion method. The note with it: read-out: IZ.
Assay [11] has as its system Micrococcus luteus. In words: Antibacterial activity against Micrococcus luteus La 2971 at 10 ug by disk diffusion method. Particulars: read-out: IZ.
In assay [12] the test system is Proteus vulgaris. Description: Antibacterial activity against Proteus vulgaris ATCC 8427 at 10 ug after 24 hrs by disk diffusion method. The note with it: ATCC 8427, 24 h, read-out: IZ.
Assay [13] has as its system Pseudomonas aeruginosa. Description: Antibacterial activity against Pseudomonas aeruginosa ATCC 27853 at 10 ug after 24 hrs by disk diffusion method. The note with it: ATCC 27853, 24 h, read-out: IZ.
Assay [14] relates to Escherichia coli. Description: Antibacterial activity against Escherichia coli ATCC 11230 at 10 ug after 24 hrs by disk diffusion method. Particulars: ATCC 11230, 24 h, read-out: IZ.
Assay [15] has as its system Staphylococcus aureus. In words: Antibacterial activity against Staphylococcus aureus ATCC 6538 at 10 ug after 24 hrs by disk diffusion method. The note with it: ATCC 6538, 24 h, read-out: IZ.
For assay [16], the system named is Mycolicibacterium smegmatis. Description: Antibacterial activity against Mycobacterium smegmatis CCM 2067 at 10 ug after 24 hrs by disk diffusion method. Particulars: CCM 2067, 24 h, read-out: IZ.
Assay [17] deals with Listeria monocytogenes. Description: Antibacterial activity against Listeria monocytogenes ATCC 15313 at 10 ug after 24 hrs by disk diffusion method. The note with it: ATCC 15313, 24 h, read-out: IZ.
Assay [18] has as its system Bacillus cereus. In words: Antibacterial activity against Bacillus cereus ATCC 7064 at 10 ug after 24 hrs by disk diffusion method. Particulars: ATCC 7064, 24 h, read-out: IZ.
The test system of assay [19] is Mycolicibacterium smegmatis. Description: Antibacterial activity against Mycobacterium smegmatis CCM 2067 after 24 hrs by dilution method. Particulars: CCM 2067, 24 h.
For assay [20], the system named is Pseudomonas aeruginosa. In words: Antibacterial activity against Pseudomonas aeruginosa ATCC 27853 after 24 hrs by disk diffusion method.
In assay [21] the test system is Hanseniaspora guilliermondii. Description: Antifungal activity against Hanseniaspora guilliermondii DSM 3432 after 48 hrs by dilution method. The note with it: DSM 3432, 48 h.
The subject of assay [22] is Mycolicibacterium smegmatis. In words: Antibacterial activity against Mycobacterium smegmatis CCM 2067 after 24 hrs by disk diffusion method.
The test system of assay [23] is Candida albicans. Description: Antifungal activity against Candida albicans ATCC 10231 after 48 hrs by dilution method. The note with it: ATCC 10231, 48 h.
In assay [24] the test system is Rhodotorula mucilaginosa. Description: Antifungal activity against Rhodotorula rubra DSM 70403 after 48 hrs by dilution method. Particulars: DSM 70403, 48 h.
Assay [25] relates to Candida albicans. In words: Antifungal activity against Candida albicans ATCC 10231 after 72 hrs by disk diffusion method.
In assay [26] the test system is Micrococcus luteus. In words: Antibacterial activity against Micrococcus luteus La 2971 after 24 hrs by disk diffusion method.
In assay [27] the test system is Bacillus cereus. Description: Antibacterial activity against Bacillus cereus ATCC 7064 after 24 hrs by disk diffusion method.
The subject of assay [28] is Proteus vulgaris. In words: Antibacterial activity against Proteus vulgaris ATCC 8427 after 24 hrs by disk diffusion method.
Assay [29] relates to Kluyveromyces marxianus. Description: Antifungal activity against Kluyveromyces fragilis NRRL 2415 after 72 hrs by disk diffusion method.
Assay [30] has as its system Micrococcus luteus. Description: Antibacterial activity against Micrococcus luteus La 2971 after 24 hrs by dilution method.
Assay [31] deals with Debaryomyces hansenii. In words: Antifungal activity against Debaryomyces hansenii DSM 70238 after 72 hrs by disk diffusion method.
Assay [32] concerns Proteus vulgaris. In words: Antibacterial activity against Proteus vulgaris ATCC 8427 by after 24 hrs dilution method. The note with it: ATCC 8427, 24 h.
For assay [33], the system named is Klebsiella pneumoniae. Description: Antibacterial activity against Klebsiella pneumoniae UC57 after 24 hrs by disk diffusion method.
Assay [34] concerns Kluyveromyces marxianus. In words: Antifungal activity against Kluyveromyces fragilis NRRL 2415 after 48 hrs by dilution method. The note with it: NRRL 2415, 48 h.
For assay [35], the system named is Pseudomonas aeruginosa. Description: Antibacterial activity against Pseudomonas aeruginosa ATCC 27853 after 24 hrs by dilution method. The note with it: ATCC 27853, 24 h.
In assay [36] the test system is Escherichia coli. Description: Antibacterial activity against Escherichia coli ATCC 11230 after 24 hrs by disk diffusion method.
Assay [37] deals with Escherichia coli. Description: Antibacterial activity against Escherichia coli ATCC 11230 after 24 hrs by dilution method. The note with it: ATCC 11230, 24 h.
For assay [38], the system named is Rhodotorula mucilaginosa. In words: Antifungal activity against Rhodotorula rubra DSM 70403 after 72 hrs by disk diffusion method.
Assay [39] concerns Listeria monocytogenes. Description: Antibacterial activity against Listeria monocytogenes ATCC 15313 after 24 hrs by disk diffusion method.
The test system of assay [40] is Staphylococcus aureus. Description: Antibacterial activity against Staphylococcus aureus ATCC 6538 after 24 hrs by dilution method. Particulars: ATCC 6538, 24 h.
Assay [41] concerns Hanseniaspora guilliermondii. Description: Antifungal activity against Hanseniaspora guilliermondii DSM 3432 after 72 hrs by disk diffusion method.
The test system of assay [42] is Klebsiella pneumoniae. In words: Antibacterial activity against Klebsiella pneumoniae UC57 after 24 hrs by dilution method.
Assay [43] concerns Debaryomyces hansenii. Description: Antifungal activity against Debaryomyces hansenii DSM 70238 after 48 hrs by dilution method. Particulars: DSM 70238, 48 h.
Assay [44] has as its system Listeria monocytogenes. In words: Antibacterial activity against Listeria monocytogenes ATCC 15313 after 24 hrs by dilution method. The note with it: ATCC 15313, 24 h.
Assay [45] concerns Staphylococcus aureus. In words: Antibacterial activity against Staphylococcus aureus ATCC 6538 after 24 hrs by disk diffusion method.
For assay [46], the system named is Bacillus cereus. Description: Antibacterial activity against Bacillus cereus ATCC 7064 after 24 hrs by dilution method. Particulars: ATCC 7064, 24 h.

For orientation: MIC means the lowest concentration that inhibits growth of the organism.

Regarding `CN[C@H](CC(C)C)C(=O)N[C@H]1C(=O)N[C@@H](CC(N)=O)C(=O)N[C@H]2C(=O)N[C@H]3C(=O)N[C@H](C(=O)N[C@H](C(=O)O)c4cc(O)cc(O)c4-c4cc3ccc4O)[C@H](O)c3ccc(c(Cl)c3)Oc3cc2cc(c3O[C@@H]2O[C@H](CO)[C@@H](O)[C@H](O)[C@H]2O[C@H]2C[C@](C)(N)[C@H](O)[C@H](C)O2)Oc2ccc(cc2Cl)[C@H]1O` [VANCOMYCIN], the zone of inhibition at 30 µg/disc with Micrococcus luteus [1] turned out to be 34 mm; with Escherichia coli [2], 22 mm; with Pseudomonas aeruginosa [3], 10 mm; in the assay with Listeria monocytogenes [4], 26 mm; in assay [5], 20 mm; with Proteus vulgaris [6] it was 20 mm. Besides, the zone of inhibition at 30 µg/disc came out at 18 mm in the assay on Bacillus cereus [7], 13 mm in the assay on Staphylococcus aureus [8] and 22 mm in the assay on Klebsiella pneumoniae [9].
As to `CC1(C)S[C@@H]2[C@H](NC(=O)[C@H](N)c3ccccc3)C(=O)N2[C@H]1C(=O)O` [AMPICILLIN], the zone of inhibition at 10 µg/disc in the assay with Klebsiella pneumoniae [10] amounted to 14 mm; with Micrococcus luteus [11], 32 mm; in the assay with Proteus vulgaris [12], 16 mm; in the assay on Pseudomonas aeruginosa [13], 10 mm; in the assay with Escherichia coli [14] it was 12 mm; with Staphylococcus aureus [15], 16 mm. Also, the zone of inhibition at 10 µg/disc in [16] was found to be 21 mm; with Listeria monocytogenes [17], 12 mm; with Bacillus cereus [18], 12 mm.
With `CN(C)[C@@H]1C(O)=C(C(N)=O)C(=O)[C@@]2(O)C(O)=C3C(=O)c4c(O)cccc4[C@@](C)(O)[C@H]3C[C@@H]12` [TETRACYCLINE], the zone of inhibition at 30 µg/disc was 2 mm with Micrococcus luteus [1]; 28 mm in the assay on Escherichia coli [2]; 34 mm in the assay with Pseudomonas aeruginosa [3]; 28 mm with Listeria monocytogenes [4]; 24 mm in assay [5]; 26 mm in the assay on Proteus vulgaris [6]. The figures for the zone of inhibition at 30 µg/disc in the assay with Bacillus cereus [7], in the assay on Staphylococcus aureus [8] and in the assay with Klebsiella pneumoniae [9] were 25 mm, 26 mm and 30 mm, respectively.
Consider `Cl.c1ccc2[nH]c(CCSSCCc3nc4ccccc4[nH]3)nc2c1`, for which the MIC in assay [19] was 6.25 µg/mL; in [21], 6.25 µg/mL; with Candida albicans [23] it was 6.25 µg/mL; with Rhodotorula mucilaginosa [24], 12.5 µg/mL; against Micrococcus luteus [30] it was 12.5 µg/mL; in the assay with Proteus vulgaris [32], 6.25 µg/mL. Further, the MIC was determined as 3.12 µg/mL against Kluyveromyces marxianus [34]; 25 µg/mL against Pseudomonas aeruginosa [35]; 12.5 µg/mL against Escherichia coli [37]; 12.5 µg/mL against Staphylococcus aureus [40]; 25 µg/mL against Klebsiella pneumoniae [42]; 12.5 µg/mL against Debaryomyces hansenii [43]. Further, the values for the MIC in the assay on Listeria monocytogenes [44] and in the assay with Bacillus cereus [46] were 12.5 µg/mL and 50 µg/mL, respectively. Moreover, the “inhibition zone (IZ)” value is on record as 12 mm with Pseudomonas aeruginosa [20]; 16 mm in [22]; 17 mm with Candida albicans [25]; 14 mm in the assay on Micrococcus luteus [26]; 12 mm in the assay on Bacillus cereus [27]; 16 mm with Proteus vulgaris [28]. Besides, the “inhibition zone (IZ)” value with Kluyveromyces marxianus [29] is recorded as 18 mm; in the assay with Debaryomyces hansenii [31] it was 14 mm; in the assay with Klebsiella pneumoniae [33], 12 mm; with Escherichia coli [36] it was 14 mm; in the assay with Rhodotorula mucilaginosa [38], 15 mm; in the assay with Listeria monocytogenes [39], 12 mm. Moreover, the “inhibition zone (IZ)” value (in assay [41]; with Staphylococcus aureus [45]) was 16 mm each time.
